Consider five molecules from patent publication US20230114728A1 (Venatorx Pharmaceuticals, Inc., priority 2019, published 2023).

Assay [1] relates to N. gonorrhoeae WHO K. In words: Liquid broth MIC in Fastidious broth. Particulars: Neisseria gonorrhoeae, read-out: Minimum Inhibitory Concentration, N. gonorrhoeae WHO K. The assay is classed as cell-based. A digest of the protocol:
(§1)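 Broth microdilution in Fastidious broth with 2-fold compound series; inoculum from 24 h chocolate agar colonies, 5×10^5 CFU/mL start. Incubated ~24 hours at 36° C, 5% CO2. MIC read visually as lowest concentration giving <10% growth versus full-growth wells; strains carry mosaic PBP2.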

The test system of assay [2] is N. gonorrhoeae ATCC 49226. The assay can be described thus: Liquid broth MIC in Fastidious broth. The format is cell-based. To be noted: Neisseria gonorrhoeae, ATCC49226; N. gonorrhoeae strain ATCC 49226; Fastidious broth; read-out: Minimum Inhibitory Concentration, N. gonorrhoeae ATCC 49226. Put shortly:
(§2)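 Colonies were swabbed from chocolate agar after 24 h growth and standardised by optical density at 600 nm. Compounds were serially diluted twofold in Fastidious broth, and bacteria added to give 5×10^5 CFU/mL. After about 24 h at 36 °C in 5% CO2, the lowest concentration allowing under 10% growth was taken as MIC.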

Assay [3] deals with N. gonorrhoeae WHO L. The assay can be described thus: Liquid broth MIC in Fastidious broth. The assay is classed as cell-based. Particulars: Neisseria gonorrhoeae; N. gonorrhoeae strain WHO L; Fastidious broth; read-out: Minimum Inhibitory Concentration, N. gonorrhoeae WHO L. Put shortly:
as §2

Assay [4] relates to N. gonorrhoeae H041. The assay can be described thus: Liquid broth MIC in Fastidious broth. The format is cell-based. To be noted: Neisseria gonorrhoeae, H041, read-out: Minimum Inhibitory Concentration, N. gonorrhoeae H041. A digest of the protocol: as §1
Assay [5] concerns N. gonorrhoeae WHO G. The assay can be described thus: Liquid broth MIC in Fastidious broth. The format is cell-based. Particulars: Neisseria gonorrhoeae; N. gonorrhoeae strain WHO G; Fastidious broth; read-out: Minimum Inhibitory Concentration, N. gonorrhoeae WHO G. Put shortly: as §2
Assay [6] relates to N. gonorrhoeae FA1090. In words: Liquid broth MIC in Fastidious broth. To be noted: Neisseria gonorrhoeae; N. gonorrhoeae strain FA1090; Fastidious broth; read-out: Minimum Inhibitory Concentration, N. gonorrhoeae FA1090. The assay is classed as cell-based. Put shortly:
as §2

Assay [7] deals with T1, P. aeruginosa PBP3 (Pseudomonas aeruginosa, UniProt G3XD46).
T1 construct: made in house
T1 sequence (G3XD46 whole entry): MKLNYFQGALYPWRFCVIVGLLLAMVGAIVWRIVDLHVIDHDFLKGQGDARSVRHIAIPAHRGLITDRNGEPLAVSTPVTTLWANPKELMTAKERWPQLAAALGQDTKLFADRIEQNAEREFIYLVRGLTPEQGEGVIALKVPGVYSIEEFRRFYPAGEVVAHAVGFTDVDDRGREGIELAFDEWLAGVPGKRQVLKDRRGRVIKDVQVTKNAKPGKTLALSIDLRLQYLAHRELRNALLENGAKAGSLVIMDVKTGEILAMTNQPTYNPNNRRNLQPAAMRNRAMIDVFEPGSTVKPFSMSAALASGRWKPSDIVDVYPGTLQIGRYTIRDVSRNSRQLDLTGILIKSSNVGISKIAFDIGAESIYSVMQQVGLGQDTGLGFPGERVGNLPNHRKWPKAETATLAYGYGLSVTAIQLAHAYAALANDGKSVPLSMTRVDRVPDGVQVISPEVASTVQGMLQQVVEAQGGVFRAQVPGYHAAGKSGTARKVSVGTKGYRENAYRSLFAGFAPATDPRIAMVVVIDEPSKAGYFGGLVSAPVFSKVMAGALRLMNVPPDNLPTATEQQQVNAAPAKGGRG
The assay can be described thus: Bocillin-FL fluorescence polarization competition binding assay, P. aeruginosa PBP3. Particulars: fluorescence polarization competition binding assay using Bocillin-FL. A digest of the protocol: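 Inhibitor competition with Bocillin-FL for P. aeruginosa PBP3 was followed by fluorescence polarization on a Cytation3 (BioTek) reader, using g-factor 0.96, 490 nm excitation and 520 nm emission. The enzyme was at 0.75 μM and the probe at 0.1 μM in Hepes/NaCl/glycerol buffer, 80 μl per well. FP was recorded immediately after probe addition for up to 60 minutes. Potency was expressed as EC50, the concentration that reduces bound probe by 50%.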
For orientation: Fluorescence polarisation rises when a labelled molecule tumbles more slowly, as on binding a larger partner.

The target of assay [8] is T2, E. coli K12 PBP3 (Escherichia coli, UniProt P0AD68).
T2 construct: made in house
T2 sequence (P0AD68 1-577): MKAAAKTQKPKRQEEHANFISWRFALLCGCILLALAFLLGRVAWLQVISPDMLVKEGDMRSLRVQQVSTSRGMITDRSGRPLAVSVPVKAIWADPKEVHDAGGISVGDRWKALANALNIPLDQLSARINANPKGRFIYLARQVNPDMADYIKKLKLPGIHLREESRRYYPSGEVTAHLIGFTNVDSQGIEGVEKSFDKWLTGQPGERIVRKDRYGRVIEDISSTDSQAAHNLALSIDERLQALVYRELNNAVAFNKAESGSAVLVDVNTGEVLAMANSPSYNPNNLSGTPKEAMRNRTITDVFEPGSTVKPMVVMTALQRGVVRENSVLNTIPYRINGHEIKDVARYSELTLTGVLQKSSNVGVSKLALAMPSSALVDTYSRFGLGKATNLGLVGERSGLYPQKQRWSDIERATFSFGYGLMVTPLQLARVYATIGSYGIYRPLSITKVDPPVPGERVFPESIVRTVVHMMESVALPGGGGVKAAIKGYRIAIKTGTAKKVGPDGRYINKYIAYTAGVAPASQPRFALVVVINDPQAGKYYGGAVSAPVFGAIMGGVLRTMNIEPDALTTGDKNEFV
In words: biochemical. The format is binding. A digest of the protocol: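 A. baumannii PBP2 (2.5 μM) and PBP3 (0.2 μM) were run in 25 mM Tris pH 8.0 buffer with Tween 20; E. coli PBP3 (1.5 μM) and N. gonorrhoeae PBP2 ([…]) in 50 mM Hepes pH 8.0 buffer.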

In brackets after ≈: the same amount, converted by molar mass.

For the molecule `CS(=O)(=O)N1CCN(C(=O)NC(C(=O)N[C@H]2Cc3ccc(F)c(C(=O)O)c3OB2O)c2ccc(O)c(O)c2Cl)C1=O` (stereo partly drawn) [Example 23, (3R)-3-(2-(2-chloro-3,4-dihydroxyphenyl)-2-(3-(methylsulfonyl)-2-oxoimidazolidine-1-carboxamido)acetamido)-7-fluoro-2-hydroxy-3,4-dihydro-2H-benzo[e][1,2]oxaborinine-8-carboxylic acid], the MIC is over 64 µg/mL in assay [1]; over 64 µg/mL in assay [2]; over 64 µg/mL in assay [3]; over 64 µg/mL in assay [4]; 16 to 32 µg/mL (≈ 26 to 52.1 µM) in assay [5]; 4 to 8 µg/mL (≈ 6.51 to 13 µM) in assay [6]. For the same molecule, the “P. aeruginosa PBP3 Potency” value in assay [7] is recorded as “D (D represents a potency <10 μM)”. Also, the concentration for a half-maximal effect (EC50) (commonly the concentration at which the effect is half-maximal) in assay [8] is under 30 µM.

On to `NCCN1CCN(C(=O)NC(C(=O)N[C@H]2Cc3ccc(F)c(C(=O)O)c3OB2O)c2nc(N)sc2F)C(=O)C1=O` (stereo partly drawn) [Example 24, (3R)-3-(2-(2-amino-5-fluorothiazol-4-yl)-2-(4-(2-aminoethyl)-2,3-dioxopiperazine-1-carboxamido)acetamido)-7-fluoro-2-hydroxy-3,4-dihydro-2H-benzo[e][1,2]oxaborinine-8-carboxylic acid], for which the MIC is over 64 µg/mL in assay [1]; over 64 µg/mL in assay [2]; over 64 µg/mL in assay [3]; over 64 µg/mL in assay [4]; 16 to 32 µg/mL (≈ 27.5 to 55 µM) in assay [5]; 16 to 32 µg/mL (≈ 27.5 to 55 µM) in assay [6]. Also, in assay [7], the “P. aeruginosa PBP3 Potency” value was “B (B represents a potency between 30 μM and 500 μM inclusive)”. In assay [8], this molecule came in with an EC50 of 30 to 500 µM.

With `NC(C(=O)N[C@H]1Cc2ccc(F)c(C(=O)O)c2OB1O)c1c(F)cc(O)c(O)c1Cl` (stereo partly drawn) [Example 25, (3R)-3-(2-amino-2-(2-chloro-6-fluoro-3,4-dihydroxyphenyl)acetamido)-7-fluoro-2-hydroxy-3,4-dihydro-2H-benzo[e][1,2]oxaborinine-8-carboxylic acid], the MIC in assay [1], in assay [2], in assay [3], in assay [4], in assay [5] and in assay [6] was over 64 µg/mL in each case. Also, the “P. aeruginosa PBP3 Potency” value in assay [7] was “B (B represents a potency between 30 μM and 500 μM inclusive)”. Moreover, in assay [8], the concentration giving a half-maximal response (EC50) was 30 to 500 µM.

Regarding `CCN1CCN(C(=O)NC(C(=O)N[C@H]2Cc3cccc(C(=O)O)c3OB2O)c2ccc(O)c(N)c2)C(=O)C1=O` (stereo partly drawn) [Example 29, (3R)-3-(2-(3-amino-4-hydroxyphenyl)-2-(4-ethyl-2,3-dioxopiperazine-1-carboxamido)acetamido)-2-hydroxy-3,4-dihydro-2H-benzo[e][1,2]oxaborinine-8-carboxylic acid], the MIC was over 64 µg/mL in assay [1]; over 64 µg/mL in assay [2]; over 64 µg/mL in assay [3]; over 64 µg/mL in assay [4]; 16 to 32 µg/mL (≈ 29.7 to 59.3 µM) in assay [5]; 4 to 8 µg/mL (≈ 7.42 to 14.8 µM) in assay [6]. Further, in assay [7], the “P. aeruginosa PBP3 Potency” value is “D (D represents a potency <10 μM)”. In assay [8], this molecule displayed an EC50 of under 30 µM.

`CCN1CCN(C(=O)NC(C(=O)N[C@H]2Cc3cccc(C(=O)O)c3OB2O)c2ccc(O)c(NS(N)(=O)=O)c2)C(=O)C1=O` (stereo partly drawn) [Example 30, (3R)-3-(2-(4-ethyl-2,3-dioxopiperazine-1-carboxamido)-2-(4-hydroxy-3-(sulfamoylamino)phenyl)acetamido)-2-hydroxy-3,4-dihydro-2H-benzo[e][1,2]oxaborinine-8-carboxylic acid]: the MIC in assay [1] is over 64 µg/mL; in assay [2], over 64 µg/mL; in assay [3], over 64 µg/mL; in assay [4], over 64 µg/mL; in assay [5] it was 16 to 32 µg/mL (≈ 25.9 to 51.7 µM); in assay [6] it was 1 to 2 µg/mL (≈ 1.62 to 3.23 µM). In addition, in assay [7], the “P. aeruginosa PBP3 Potency” value is reported as “D (D represents a potency <10 μM)”. The molecule further returned a 50% effective concentration (EC50) in assay [8] of under 30 µM.
